Some test systems named below: 786-0 renal; A498 renal; DU-145 prostate; HCT-116 colon; HCT-15 colon; NCI/ADR-RES ovarian; OVCAR-4 ovarian; SK-MEL-28 melanoma; SW-620 colon; T-47D breast.
Common to all, as to test: NCI anticancer screen, dose series, 48 h

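Protocol summary: plate cells (96-well), add compound at 5 concentrations, incubate 48 h, interpolate endpoints linearly. TGI: concentration producing complete growth inhibition.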 A value given as a limit tells only on which side of the number the result lay.

Turning to `Cc1cc2c(cc1Cl)Sc1nnc(Nc3ccccc3)n1S2(=O)=O`, the TGI with 786-0 renal was 19.1 µM; in the assay with A498 renal it was 33.8 µM; in the assay on DU-145 prostate, above 100 µM; in the assay with HCT-116 colon, 37.1 µM; with HCT-15 colon it was 28.9 µM; in the assay with NCI/ADR-RES ovarian it was 23.4 µM. The TGI in the assay on OVCAR-4 ovarian is 32 µM; in the assay on SK-MEL-28 melanoma it was 70.9 µM; with SW-620 colon, above 100 µM; in the assay on T-47D breast it was 57.3 µM.

As to `CC(=O)O/C=C\OC1CCCC1(c1ccccc1)c1ccccc1` (stereo not given), the TGI in the assay on 786-0 renal was found to be 7.75 µM; in the assay with A498 renal, 32.9 µM; with DU-145 prostate, 13.7 µM; with HCT-116 colon it was 4.19 µM; with HCT-15 colon, 4.7 µM; with NCI/ADR-RES ovarian it was 8.53 µM. For the same compound, the TGI in the assay with OVCAR-4 ovarian is 7.25 µM; in the assay with SK-MEL-28 melanoma, 4.59 µM; in the assay on SW-620 colon it was 4.72 µM; with T-47D breast, 6.19 µM.

On to `COc1cc2c(cc1C[N+](C)(C)CSc1ccccc1)-c1ccccc1CC2`, for which the TGI with 786-0 renal is 19.6 µM; in the assay with A498 renal, 37.9 µM; in the assay with DU-145 prostate, 21.2 µM; in the assay with HCT-116 colon, 13.1 µM; in the assay with HCT-15 colon, 30.2 µM; in the assay on NCI/ADR-RES ovarian it was above 100 µM. In addition, the TGI with OVCAR-4 ovarian is 18.9 µM; with SK-MEL-28 melanoma it was above 35.1 µM; in the assay with SW-620 colon, above 41.3 µM; with T-47D breast it was 16.2 µM.

Regarding `c1ccc(CNc2c3c(nc4ccccc24)CCC3)cc1`, the TGI with 786-0 renal is 28.5 µM; in the assay with A498 renal, 31.7 µM; in the assay with DU-145 prostate, 62.5 µM; with HCT-116 colon, 24.9 µM; with HCT-15 colon, 68.4 µM; in the assay with NCI/ADR-RES ovarian it was 44.2 µM. The TGI in the assay on OVCAR-4 ovarian was found to be 58.7 µM; in the assay on SK-MEL-28 melanoma it was 24.3 µM; in the assay on SW-620 colon, 28.2 µM; with T-47D breast, 38.7 µM.

Regarding `C=CC(=O)N1C/C(=C\c2ccc(N(C)C)cc2)C(=O)/C(=C/c2ccc(N(C)C)cc2)C1`, the TGI in the assay with 786-0 renal, in the assay with A498 renal, in the assay on DU-145 prostate, in the assay with HCT-116 colon, in the assay on HCT-15 colon and in the assay on NCI/ADR-RES ovarian was above 100 µM each time. Besides, the TGI in the assay on OVCAR-4 ovarian, in the assay with SK-MEL-28 melanoma, in the assay on SW-620 colon and in the assay on T-47D breast was above 100 µM in each case.

Consider `COC1C(O)CC(OC2C(C)OC(Oc3cc(O)c4c(O)c5c(cc4c3)C[C@@H]([C@H](OC)C(=O)[C@@H](O)[C@@H](C)O)[C@H](OC3CC(OC4CC(OC6CC(C)(O)C(O)C(C)O6)C(O)C(C)O4)C(O)C(C)O3)C5=O)CC2OC(C)=O)OC1C` (stereo not given in full), for which the TGI in the assay on 786-0 renal, with A498 renal, with DU-145 prostate, with HCT-116 colon, with HCT-15 colon and with NCI/ADR-RES ovarian was above 100 µM in each case. The TGI in the assay on OVCAR-4 ovarian, in the assay on SK-MEL-28 melanoma, in the assay on SW-620 colon and in the assay with T-47D breast was above 100 µM throughout.

For `O=C(NCCN(CCNC(=O)c1cccc(=O)n1O)CCN(CCNC(=O)c1cccc(=O)n1O)CCNC(=O)c1cccc(=O)n1O)c1cccc(=O)n1O`, the TGI in the assay with 786-0 renal, with A498 renal, with DU-145 prostate, in the assay with HCT-116 colon, in the assay with HCT-15 colon and in the assay on NCI/ADR-RES ovarian was above 100 µM throughout. Also, the TGI in the assay on OVCAR-4 ovarian, in the assay with SK-MEL-28 melanoma, in the assay with SW-620 colon and in the assay on T-47D breast was above 100 µM in each case.

With `COc1ccc2c(c1)O[C@@H]1C(O)Oc3cc(OC)c(OC)cc3[C@]1(O)C2=O` (stereo not given in full), the TGI with 786-0 renal, with A498 renal, in the assay with DU-145 prostate, in the assay on HCT-116 colon, in the assay on HCT-15 colon and in the assay with NCI/ADR-RES ovarian was above 100 µM throughout. Moreover, the TGI in the assay on OVCAR-4 ovarian, with SK-MEL-28 melanoma, in the assay with SW-620 colon and with T-47D breast was above 100 µM throughout.

On to `COC(=O)Cc1ccc2c(c1)Sc1ccc(CC(=O)OC)cc1N2C`, for which the TGI with 786-0 renal is above 100 µM; in the assay with A498 renal, 99.6 µM; with DU-145 prostate, above 100 µM; in the assay with HCT-116 colon, above 100 µM; in the assay on HCT-15 colon, above 92.6 µM; in the assay with NCI/ADR-RES ovarian, above 68.3 µM. The TGI in the assay on OVCAR-4 ovarian, in the assay with SK-MEL-28 melanoma, with SW-620 colon and in the assay on T-47D breast was above 100 µM each time.

With `COc1ccc2nc3cc(Cl)ccc3c(NCCCCCC(=O)NC(COc3cnc4c(ccc5cccnc54)c3)COc3cnc4c(ccc5cccnc54)c3)c2c1`, the TGI with 786-0 renal was 28.1 µM; with A498 renal, 62.8 µM; with DU-145 prostate it was 23.4 µM; in the assay with HCT-116 colon, 14.9 µM; in the assay on HCT-15 colon it was above 100 µM; in the assay with NCI/ADR-RES ovarian, above 100 µM. For the same compound, the TGI was above 100 µM with OVCAR-4 ovarian, above 100 µM in the assay with SK-MEL-28 melanoma, 24.4 µM in the assay on SW-620 colon and 28.6 µM in the assay with T-47D breast.

Consider `CN1CC2=C(OC(N)=C(C#N)C2c2cccs2)/C(=C/c2cccs2)C1` (stereo not given), for which the TGI in the assay on 786-0 renal was above 69.9 µM; with A498 renal it was above 100 µM; with DU-145 prostate, 81.7 µM; with HCT-116 colon it was above 49.3 µM; with HCT-15 colon it was above 100 µM; in the assay on NCI/ADR-RES ovarian, 23.6 µM. In addition, the TGI with OVCAR-4 ovarian was 39.4 µM; in the assay with SK-MEL-28 melanoma it was above 100 µM; in the assay on SW-620 colon, above 100 µM; in the assay with T-47D breast, 1.47 µM.

Turning to `Cn1ccnc1Sc1ccc(/C=N/NC(=O)c2ccccc2O)cc1[N+](=O)[O-]`, the TGI in the assay on 786-0 renal, in the assay on A498 renal, with DU-145 prostate, in the assay with HCT-116 colon, in the assay on HCT-15 colon and in the assay with NCI/ADR-RES ovarian was above 100 µM in each case. Also, the TGI with OVCAR-4 ovarian, in the assay with SK-MEL-28 melanoma, with SW-620 colon and in the assay with T-47D breast was above 100 µM throughout.

`C=CCC(C)C12CCNC(Cc3ccc(O)cc31)C2C` (stereo not given): the TGI with 786-0 renal, in the assay on A498 renal, with DU-145 prostate, with HCT-116 colon, with HCT-15 colon and with NCI/ADR-RES ovarian was above 100 µM each time. Besides, the TGI in the assay on OVCAR-4 ovarian, with SK-MEL-28 melanoma, in the assay on SW-620 colon and in the assay on T-47D breast was above 100 µM in each case.

Source of the values: PubChem BioAssay (NCI).
